Experiments:
[1] = system: rat model of chronic kidney disease; details: cited from earlier work; for cardiac and aortic medial hypertrophy / renal effects (albuminuria, azotemia, renovascular hypertrophy, glomerular injury, PAI-1 and osteopontin mRNA, tubulointerstitial fibrosis): angiotensin II and high salt treated rats
[2] = system: rats with experimental heart failure; details: cited from earlier work
human CYP11B2 = human CYP11B2 (Homo sapiens (Human), UniProt P19099); experiment: G-402 cellular enzyme assay, human CYP11B2 (aldosterone release); type: cell-based; details: G-402 cells expressing human CYP11B2; 1 μM Deoxycorticosterone; aldosterone in supernatant after 16 h
Excerpt: (§1) Herein we identified the use of the G-402 cell line as a host cell to ectopically express (transiently or stably) enzymes of the CYP11 family. Specifically we developed stable G-402 cells expressing ectopically human CYP11B1, human CYP11B2, human CYP11A1, cynmolgus CYP11B1 or cynomolgus CYP11B2 enzyme activity. Importantly the identified cell line G-402 expresses co-factors (adrenodoxin and adrenodoxin reductase) important for the activity of the CYP11 family and no relevant enzyme activity of the CYP11 family (in comparison to H295R cells) was detected in these cells. Therefore the G-402 cell line is uniquely suited as a host cell for the ectopic expression of enzymes from the CYP11 family.
(§2) G-402 cells can be obtained from ATCC (CRL-1440) and were originally derived from a renal leiomyoblastoma.
(§3) The expression plasmids contains the ORF for either human/cyno CYP11B1 or CYP11B2 under the control of a suitable promoter (CMV-promoter) and a suitable resistance marker (neomycin). Using standard techniques the expression plasmid is transfected into G-402 cells and these cells are then selected for expressing the given resistance markers. Individual cell-clones are then selected and assessed for displaying the desired enzymatic activity using 11-Deoxycorticosterone (Cyp11B2) or 11-Deoxycortisol (Cyp11B1) as a substrate.
(§4) G-402 cells expressing CYP11 constructs were established as described above and maintained in McCoy's 5a Medium Modified, ATCC Catalog No. 30-2007 containing 10% FCS and 400 μg/ml G418 (Geneticin) at 37° C. under an atmosphere of 5% CO2/95% air. Cellular enzyme assays were performed in DMEM/F12 medium containing 2.5% charcoal treated FCS and appropriate concentration of substrate (0.3-10 uM 11-Deoxycorticosterone, 11-Deoxycortisol or Corticosterone). For assaying enzymatic activity, cells were plated onto 96 well plates and incubated for 16 h. An aliquot of the supernatant is then transferred and analyzed for the concentration of the expected product (Aldosterone for CYP11B2; Cortisol for CYP11B1). The concentrations of these steroids can be determined using HTRF assays from CisBio analyzing either Aldosterone or Cortisol.
(§5) Inhibition of the release of produced steroids can be used as a measure of the respective enzyme inhibition by test compounds added during the cellular enzyme assay. The dose dependent inhibition of enzymatic activity by a compound is calculated by means of plotting added inhibitor concentrations (x-axes) vs. measured steroid/product level (y-axes). The inhibition is then calculated by fitting the following 4-parameter sigmoidal function (Morgan-Mercer-Flodin (MMF) model) to the raw data points using the least squares method:
(§6) [formula] wherein, A is the maximum y value, B is the EC50 factor determined using XLFit, C is the minimum y value and D is the slope value.
(§7) EC50 values for compounds claimed herein were tested with the G402-based assay system described. Cyp11B2 enzyme activity was tested in presence of 1 μM Deoxycorticosterone and variable amounts of inhibitors; Cyp11B1 enzyme activity was tested in presence of 1 μM Deoxycortisol and variable amounts of inhibitors.

human CYP11B1 = human CYP11B1 (Homo sapiens (Human), UniProt P15538); experiment: G-402 cellular enzyme assay, human CYP11B1 (cortisol release); type: cell-based; details: G-402 cells expressing human CYP11B1; 1 μM Deoxycortisol; cortisol in supernatant after 16 h
Excerpt: as §1, §2, §3, §4, §5, §6, §7

[3] = system: patients with primary aldosteronism; details: oral; cited from earlier work

Sequence of human CYP11B1 (P15538 25-503): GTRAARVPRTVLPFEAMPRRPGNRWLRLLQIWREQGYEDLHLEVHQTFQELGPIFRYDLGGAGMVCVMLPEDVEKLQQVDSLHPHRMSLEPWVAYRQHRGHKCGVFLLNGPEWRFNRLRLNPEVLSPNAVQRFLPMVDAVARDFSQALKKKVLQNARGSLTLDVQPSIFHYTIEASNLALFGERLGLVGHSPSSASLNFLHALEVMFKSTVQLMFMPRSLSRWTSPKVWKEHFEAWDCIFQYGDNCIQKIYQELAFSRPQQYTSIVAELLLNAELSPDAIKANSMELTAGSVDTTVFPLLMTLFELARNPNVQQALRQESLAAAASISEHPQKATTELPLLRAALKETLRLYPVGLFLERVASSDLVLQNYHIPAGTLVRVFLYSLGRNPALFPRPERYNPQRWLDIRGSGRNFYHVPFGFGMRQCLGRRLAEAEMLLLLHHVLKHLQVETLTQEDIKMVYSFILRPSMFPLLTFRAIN
Sequence of human CYP11B2 (P19099 25-503): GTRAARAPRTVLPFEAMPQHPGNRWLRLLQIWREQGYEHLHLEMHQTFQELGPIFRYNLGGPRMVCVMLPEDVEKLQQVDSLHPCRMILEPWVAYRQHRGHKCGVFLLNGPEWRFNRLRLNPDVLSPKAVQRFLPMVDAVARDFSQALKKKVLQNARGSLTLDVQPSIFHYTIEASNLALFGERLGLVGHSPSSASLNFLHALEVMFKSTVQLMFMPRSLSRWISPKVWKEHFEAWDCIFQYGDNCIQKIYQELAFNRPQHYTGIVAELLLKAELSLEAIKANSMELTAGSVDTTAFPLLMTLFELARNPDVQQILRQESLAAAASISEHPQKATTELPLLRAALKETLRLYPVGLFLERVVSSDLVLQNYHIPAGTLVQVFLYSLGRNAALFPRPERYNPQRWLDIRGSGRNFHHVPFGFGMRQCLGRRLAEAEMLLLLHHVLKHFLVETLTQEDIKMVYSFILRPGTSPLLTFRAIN

Row | Structure (SMILES) | EC50 (human CYP11B2) [nM] | EC50 (human CYP11B1) [nM] | also measured
1 | CC(=O)S[C@@H]1CC2=CC(=O)CC[C@]2(C)[C@H]2CC[C@@]3(C)[C@@H](CC[C@@]34CCC(=O)O4)[C@H]12 [spironolactone] | – | – | cardiac and aortic medial hypertrophy [1]: attenuated; renal effects (albuminuria, azotemia, renovascular hypertrophy, glomerular injury, PAI-1 and osteopontin mRNA, tubulointerstitial fibrosis) [1]: prevented these renal effects; aldosterone ([1]; at 4 and 8 weeks of treatment): increased; angiotensin II and salt-stimulated PAI-1 mRNA expression ([1]; in the aorta and the heart): enhanced
2 | N#Cc1ccc([C@H]2CCCc3cncn32)cc1 [FAD286] | – | – | cardiac and aortic medial hypertrophy [1]: attenuated; renal effects (albuminuria, azotemia, renovascular hypertrophy, glomerular injury, PAI-1 and osteopontin mRNA, tubulointerstitial fibrosis) [1]: prevented these renal effects; plasma aldosterone ([1]; following 4 weeks of treatment): reduced; blood pressure and cardiovascular function and structure [2]: improved; kidney function and morphology [2]: improve
3 | Cn1cc(C(=O)N2CC3(C2)CN(c2cncc(N4C(=O)c5ccc(Cl)cc5C4(C)C)c2)C3)c(C(F)F)n1 [Example 35, 5-Chloro-2-[5-[2-[3-(difluoromethyl)-1-methyl-pyrazole-4-carbonyl]-2,6-diazaspiro[3.3]heptan-6-yl]-3-pyridyl]-3,3-dimethyl-isoindolin-1-one] | 0.333 | 29.5 | –
4 | Cc1cnc(C(=O)N2CC3(C2)CN(c2cncc(N4C(=O)c5ccc(Cl)cc5C4(C)C)c2)C3)nc1 [Example 34, 5-Chloro-3,3-dimethyl-2-[5-[2-(5-methylpyrimidine-2-carbonyl)-2,6-diazaspiro[3.3]heptan-6-yl]-3-pyridyl]isoindolin-1-one] | 0.097 | 9.55 | –
5 | Cc1ccncc1C(=O)N1CC2(C1)CN(c1cncc(N3C(=O)c4ccc(C#N)cc4C3(C)C)c1)C2 [Example 14, 3,3-Dimethyl-2-[5-[2-(4-methylpyridine-3-carbonyl)-2,6-diazaspiro[3.3]heptan-6-yl]-3-pyridyl]-1-oxo-isoindoline-5-carbonitrile] | 0.0407 | 21 | –
6 | COc1ccncc1C(=O)N1CC2(C1)CN(c1cncc(N3C(=O)c4ccc(Cl)cc4C3(C)C)c1)C2 [Example 24, 5-Chloro-2-[5-[2-(4-methoxypyridine-3-carbonyl)-2,6-diazaspiro[3.3]heptan-6-yl]-3-pyridyl]-3,3-dimethyl-isoindolin-1-one] | 0.0449 | 17.2 | –
7 | Cc1ncnc(C)c1C(=O)N1CC2(C1)CN(c1cncc(N3C(=O)c4ccc(Cl)cc4C3(C)C)c1)C2 [Example 48, 5-Chloro-2-[5-[2-(4,6-dimethylpyrimidine-5-carbonyl)-2,6-diazaspiro[3.3]heptan-6-yl]-3-pyridyl]-3,3-dimethyl-isoindolin-1-one] | 0.239 | > 30 | –
8 | CC1(C)c2cc(Cl)ccc2C(=O)N1c1cncc(N2CC3(CN(C(=O)c4cncc(C#N)c4)C3)C2)c1 [Example 36, 5-[6-[5-(6-Chloro-1,1-dimethyl-3-oxo-isoindolin-2-yl)-3-pyridyl]-2,6-diazaspiro[3.3]heptane-2-carbonyl]pyridine-3-carbonitrile] | 0.0457 | 31 | –
9 | Cc1ccncc1C(=O)N1CC2(C1)CN(c1cncc(N3C(=O)c4ccc(Cl)cc4C3(C)C)c1)C2 [Example 7, 5-Chloro-3,3-dimethyl-2-[5-[2-(4-methylpyridine-3-carbonyl)-2,6-diazaspiro[3.3]heptan-6-yl]-3-pyridyl]isoindolin-1-one] | 0.0138 | 25.7 | –
10 | N#Cc1ccc([C@H]2CCc3cncn32)c(F)c1 [LC1699] | – | – | blood pressure [3]: mildly decreased; circulating aldosterone levels [3]: significantly lower; hypokalemia [3]: corrected; selectivity (effects on the glucocorticoid axis, cortisol synthesis) [3]: poor selectivity
11 | Cc1ncncc1C(=O)N1CC2(C1)CN(c1cncc(N3C(=O)c4ccc(Cl)cc4C3(C)C)c1)C2 [Example 29, 5-Chloro-3,3-dimethyl-2-[5-[2-(4-methylpyrimidine-5-carbonyl)-2,6-diazaspiro[3.3]heptan-6-yl]-3-pyridyl]isoindolin-1-one] | 0.0748 | > 30 | –
12 | COc1ccc2c(n1)C(C)(C)N(c1cncc(N3CC4(CN(C(=O)c5ccnn5C)C4)C3)c1)C2=O [Example 17, 2-Methoxy-7,7-dimethyl-6-[5-[2-(2-methylpyrazole-3-carbonyl)-2,6-diazaspiro[3.3]heptan-6-yl]-3-pyridyl]pyrrolo[3,4-b]pyridin-5-one] | 0.901 | 33.2 | –
